Data taken from the NIST ThermoML archive (doi:10.1016/j.fluid.2008.03.004).

Assay: xn = mol fraction of the nth substance listed
Conditions: 101 kPa, Liquid; for speed of sound: Sing-around technique in a fixed-path interferometer

Cc1cccc(C)c1 [1,3-dimethylbenzene] + COC(C)(C)C
Conditions	mass density [kg/m3]	speed of sound [m/s]
288.15 K, x2 = 0	868.459	1362.7
288.15 K, x2 = 0.047	863.235	1350.6
288.15 K, x2 = 0.115	855.522	1332.6
288.15 K, x2 = 0.212	844.315	1306.8
288.15 K, x2 = 0.304	833.627	1282.4
288.15 K, x2 = 0.399	822.223	1256.5
288.15 K, x2 = 0.5	809.928	1228.3
288.15 K, x2 = 0.601	797.423	1200.9
288.15 K, x2 = 0.651	791.063	1185.3
288.15 K, x2 = 0.794	772.47	1143.4
288.15 K, x2 = 0.898	758.81	1113.2
288.15 K, x2 = 0.954	751.317	1097.5
290.65 K, x2 = 0	866.318	1352.1
290.65 K, x2 = 0.047	861.081	1340.1
290.65 K, x2 = 0.115	853.297	1322.5
290.65 K, x2 = 0.212	842.102	1296.1
290.65 K, x2 = 0.304	831.375	1271.5
290.65 K, x2 = 0.399	819.939	1245.6
290.65 K, x2 = 0.5	807.6	1217.4
290.65 K, x2 = 0.601	795.051	1189.7
290.65 K, x2 = 0.651	788.663	1173.8
290.65 K, x2 = 0.794	769.999	1132
290.65 K, x2 = 0.898	756.279	1101.5
290.65 K, x2 = 0.954	748.754	1085.7
293.15 K, x2 = 0	864.177	1341.7
293.15 K, x2 = 0.047	858.922	1329.7
293.15 K, x2 = 0.115	851.118	1312
293.15 K, x2 = 0.212	839.887	1285.5
293.15 K, x2 = 0.304	829.126	1260.8
293.15 K, x2 = 0.399	817.65	1234.7
293.15 K, x2 = 0.5	805.27	1206.5
293.15 K, x2 = 0.601	792.671	1178.5
293.15 K, x2 = 0.651	786.26	1162.6
293.15 K, x2 = 0.794	767.519	1120.7
293.15 K, x2 = 0.898	753.738	1090
293.15 K, x2 = 0.954	746.179	1074.1
295.65 K, x2 = 0	862.035	1331.3
295.65 K, x2 = 0.047	856.763	1319
295.65 K, x2 = 0.115	848.935	1301.5
295.65 K, x2 = 0.212	837.67	1274.9
295.65 K, x2 = 0.304	826.872	1250.1
295.65 K, x2 = 0.399	815.358	1223.9
295.65 K, x2 = 0.5	802.93	1195.6
295.65 K, x2 = 0.601	790.285	1167.3
295.65 K, x2 = 0.651	783.85	1151.5
295.65 K, x2 = 0.794	765.033	1109.4
295.65 K, x2 = 0.898	751.19	1078.5
295.65 K, x2 = 0.954	743.594	1062.5
298.15 K, x2 = 0	859.89	1320.9
298.15 K, x2 = 0.047	854.604	1308.8
298.15 K, x2 = 0.115	846.749	1291
298.15 K, x2 = 0.212	835.447	1264.3
298.15 K, x2 = 0.304	824.615	1239.4
298.15 K, x2 = 0.399	813.059	1213.1
298.15 K, x2 = 0.5	800.588	1184.7
298.15 K, x2 = 0.601	787.899	1156
298.15 K, x2 = 0.651	781.433	1140.4
298.15 K, x2 = 0.794	762.537	1098.1
298.15 K, x2 = 0.898	748.629	1066.9
298.15 K, x2 = 0.954	740.997	1050.9
300.65 K, x2 = 0	857.742	1310.6
300.65 K, x2 = 0.047	852.439	1298.5
300.65 K, x2 = 0.115	844.562	1280.5
300.65 K, x2 = 0.212	833.221	1253.8
300.65 K, x2 = 0.304	822.354	1228.8
300.65 K, x2 = 0.399	810.758	1202.3
300.65 K, x2 = 0.5	798.24	1173.9
300.65 K, x2 = 0.601	785.504	1144.9
300.65 K, x2 = 0.651	779.011	1129.3
300.65 K, x2 = 0.794	760.033	1086.9
300.65 K, x2 = 0.898	746.061	1055.5
300.65 K, x2 = 0.954	738.393	1039.4
303.15 K, x2 = 0	855.593	1300.3
303.15 K, x2 = 0.047	850.273	1288.1
303.15 K, x2 = 0.115	842.425	1270
303.15 K, x2 = 0.212	830.994	1243.3
303.15 K, x2 = 0.304	820.086	1218.2
303.15 K, x2 = 0.399	808.453	1191.6
303.15 K, x2 = 0.5	795.888	1163.1
303.15 K, x2 = 0.601	783.103	1133.8
303.15 K, x2 = 0.651	776.58	1118.3
303.15 K, x2 = 0.794	757.521	1075.7
303.15 K, x2 = 0.898	743.481	1044
303.15 K, x2 = 0.954	735.774	1027.8
305.65 K, x2 = 0	853.441	1290
305.65 K, x2 = 0.047	848.1	1277.8
305.65 K, x2 = 0.115	840.172	1259.7
305.65 K, x2 = 0.212	828.758	1232.9
305.65 K, x2 = 0.304	817.815	1207.7
305.65 K, x2 = 0.399	806.139	1180.9
305.65 K, x2 = 0.5	793.525	1152.3
305.65 K, x2 = 0.601	780.692	1122.8
305.65 K, x2 = 0.651	774.141	1107.3
305.65 K, x2 = 0.794	755.009	1064.7
305.65 K, x2 = 0.898	740.889	1032.7
305.65 K, x2 = 0.954	733.146	1016.3
308.15 K, x2 = 0	851.282	1279.8
308.15 K, x2 = 0.047	845.927	1267.6
308.15 K, x2 = 0.115	837.974	1249.3
308.15 K, x2 = 0.212	826.519	1222.5
308.15 K, x2 = 0.304	815.538	1197.2
308.15 K, x2 = 0.399	803.818	1170.3
308.15 K, x2 = 0.5	791.157	1141.6
308.15 K, x2 = 0.601	778.273	1112
308.15 K, x2 = 0.651	771.692	1096.4
308.15 K, x2 = 0.794	752.457	1053.3
308.15 K, x2 = 0.898	738.286	1021.4
308.15 K, x2 = 0.954	730.505	1004.8
310.65 K, x2 = 0	849.122	1269.6
310.65 K, x2 = 0.047	843.75	1257.3
310.65 K, x2 = 0.115	835.768	1239.1
310.65 K, x2 = 0.212	824.276	1212.1
310.65 K, x2 = 0.304	813.255	1186.8
310.65 K, x2 = 0.399	801.494	1159.8
310.65 K, x2 = 0.5	788.781	1130.9
310.65 K, x2 = 0.601	775.847	1101.1
310.65 K, x2 = 0.651	769.237	1085.5
310.65 K, x2 = 0.794	749.912	1042.3
310.65 K, x2 = 0.898	735.671	1010.1
310.65 K, x2 = 0.954	727.852	993.4
313.15 K, x2 = 0	846.958	1259.5
313.15 K, x2 = 0.047	841.566	1247.2
313.15 K, x2 = 0.115	833.56	1228.8
313.15 K, x2 = 0.212	822.027	1201.8
313.15 K, x2 = 0.304	810.966	1176.3
313.15 K, x2 = 0.399	799.161	1149.3
313.15 K, x2 = 0.5	786.398	1120.3
313.15 K, x2 = 0.601	773.412	1090.2
313.15 K, x2 = 0.651	766.771	1074.7
313.15 K, x2 = 0.794	747.356	1031.2
313.15 K, x2 = 0.898	733.042	998.84
313.15 K, x2 = 0.954	725.183	981.87
315.65 K, x2 = 0	844.792	1249.3
315.65 K, x2 = 0.047	839.381	1237
315.65 K, x2 = 0.115	831.348	1218.6
315.65 K, x2 = 0.212	819.775	1191.5
315.65 K, x2 = 0.304	808.673	1165.9
315.65 K, x2 = 0.399	796.825	1138.8
315.65 K, x2 = 0.5	784.01	1109.7
315.65 K, x2 = 0.601	770.967	1079.5
315.65 K, x2 = 0.651	764.3	1063.9
315.65 K, x2 = 0.794	744.791	1020.2
315.65 K, x2 = 0.898	730.402	987.66
315.65 K, x2 = 0.954	722.504	970.42
318.15 K, x2 = 0	842.622	1239.3
318.15 K, x2 = 0.047	837.193	1226.9
318.15 K, x2 = 0.115	829.131	1208.5
318.15 K, x2 = 0.212	817.518	1181.2
318.15 K, x2 = 0.304	806.375	1155.6
318.15 K, x2 = 0.399	794.481	1128.3
318.15 K, x2 = 0.5	781.614	1099.1
318.15 K, x2 = 0.601	768.518	1068.8
318.15 K, x2 = 0.651	761.816	1053.1
318.15 K, x2 = 0.794	742.213	1009.3
318.15 K, x2 = 0.898	727.749	976.53
318.15 K, x2 = 0.954	719.811	959.09
320.65 K, x2 = 0	840.452	1229.3
320.65 K, x2 = 0.047	835	1216.9
320.65 K, x2 = 0.115	826.912	1198.3
320.65 K, x2 = 0.212	815.256	1171
320.65 K, x2 = 0.304	804.075	1145.3
320.65 K, x2 = 0.399	792.132	1118
320.65 K, x2 = 0.5	779.21	1088.6
320.65 K, x2 = 0.601	766.061	1058.2
320.65 K, x2 = 0.651	759.325	1042.4
320.65 K, x2 = 0.794	739.628	998.4
320.65 K, x2 = 0.898	725.085	965.42
320.65 K, x2 = 0.954	717.105	947.81
323.15 K, x2 = 0	838.289	1219.5
323.15 K, x2 = 0.047	832.812	1207
323.15 K, x2 = 0.115	824.696	1188.4
323.15 K, x2 = 0.212	813.002	1161.1
323.15 K, x2 = 0.304	801.776	1135.1
323.15 K, x2 = 0.399	789.785	1107.7
323.15 K, x2 = 0.5	776.809	1078.2
323.15 K, x2 = 0.601	763.606	1047.7
323.15 K, x2 = 0.651	756.839	1031.9
323.15 K, x2 = 0.794	737.044	987.59
323.15 K, x2 = 0.898	722.414	954.46
323.15 K, x2 = 0.954	714.398	936.68
